The values below come from US11970465B1, “Ethyl {[4-benzoyl-5-(3-fluorophenyl)-4H-1,2,4-triazol-3-yl]thio}acetate as an antimicrobial compound” (priority 2023, dated 2024).

Data set [1] has as its system different microbes (Bacillus cereus, Staphylococcus aureus, Pseudomonas aeruginosa, Escherichia coli, Aspergillus flavus, Chrysosporium keratinophilum). Description: agar plate disc-diffusion antimicrobial test. As to conditions: disc wetted with 10 μL of 10 mg/mL in DMSO; 37° C., 48 h (72 h for fungi); inhibition zones measured in mm but not given. Format: cell-based. As for the experimental part: The agar plate disc-diffusion method was applied. Sterilized filter papers (6 mm in diameter) were wetted with 10 μL of a solution of ethyl {[4-benzoyl-5-(3-fluorophenyl)-4H-1,2,4-triazol-3-yl]thio}acetate (III) to be tested, containing 10 mg/mL in DMSO, and the discs were allowed to air dry. The discs were then placed onto the surface of agar plates (nutrient agar for bacteria and Sabouraud's dextrose agar for fungi) seeded with the test organism. Each plate contained 15 mL of the agar medium, previously seeded with 0.2 mL of the broth culture of each organism pregrown for 18 h. The plates were incubated at 37° C. for 48 h, and 72 h for fungi. The inhibition zones was measured in mm. Discs impregnated with DMSO were used as a control, and its inhibition zone was subtracted from the tested compound actual inhibition zone. […] The antibacterial activity was screened against gram positive bacteria namely Bacillus cereus and Staphylococcus aureus and gram-negative bacterial strains namely Pseudomonas aeruginosa and Escherichia coli, while the antifungal activity was screened against Aspergillus flavus and Chrysosporium keratinophilum.
On the technique in general: Agar diffusion results depend on both activity and mobility in agar.

With `CCOC(=O)CSc1nnc(-c2cccc(F)c2)n1C(=O)c1ccccc1` [III, ethyl {[4-benzoyl-5-(3-fluorophenyl)-4H-1,2,4-triazol-3-yl]thio}acetate], the melting point (as a rule, the temperature of the solid-liquid transition) fell in the range of 154 to 155 °C. Moreover, the antimicrobial activities result in data set [1] was “excellent antimicrobial activities”.
